Test results as given in patent publication US20250215029A1 (Recludix Pharma, Inc., priority 2022, published 2025).
Read-outs that look alike come from different tables or passages of the source.

Biological target: T1, pY641-STAT6 in PBMC (Homo sapiens, UniProt P42226)
T1 construct: Cryopreserved Peripheral Blood Mononuclear Cells (PBMC) are from AllCells; host or cells: cryopreserved PBMC
T1 sequence (P42226 1-847): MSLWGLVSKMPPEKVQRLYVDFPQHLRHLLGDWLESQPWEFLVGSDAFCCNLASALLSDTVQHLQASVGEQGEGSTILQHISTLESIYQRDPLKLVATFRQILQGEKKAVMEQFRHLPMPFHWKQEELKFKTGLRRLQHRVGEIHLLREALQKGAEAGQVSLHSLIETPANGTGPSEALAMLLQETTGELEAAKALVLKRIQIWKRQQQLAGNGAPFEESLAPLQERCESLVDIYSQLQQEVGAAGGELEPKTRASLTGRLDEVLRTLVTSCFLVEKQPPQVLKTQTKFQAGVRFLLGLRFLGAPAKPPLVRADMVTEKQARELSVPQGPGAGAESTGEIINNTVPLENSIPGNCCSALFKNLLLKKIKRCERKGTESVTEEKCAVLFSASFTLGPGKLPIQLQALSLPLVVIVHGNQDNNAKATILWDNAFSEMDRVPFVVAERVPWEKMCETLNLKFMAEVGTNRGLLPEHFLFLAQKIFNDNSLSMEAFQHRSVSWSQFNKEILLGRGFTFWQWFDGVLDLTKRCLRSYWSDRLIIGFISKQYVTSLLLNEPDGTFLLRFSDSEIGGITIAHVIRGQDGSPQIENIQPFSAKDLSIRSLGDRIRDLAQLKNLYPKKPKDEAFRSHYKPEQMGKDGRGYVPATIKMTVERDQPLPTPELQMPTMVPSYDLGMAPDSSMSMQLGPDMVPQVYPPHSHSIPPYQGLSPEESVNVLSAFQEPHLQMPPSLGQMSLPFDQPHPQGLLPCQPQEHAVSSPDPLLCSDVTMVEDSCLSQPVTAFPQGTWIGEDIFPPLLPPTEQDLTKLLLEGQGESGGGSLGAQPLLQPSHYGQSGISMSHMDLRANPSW
Assay: MSD-pSTAT-PBMC Assay (pSTAT6, IL-4 stimulated)
Type: cell-based
Conditions: compound 3 hrs, then 1 ng/mL IL-4 for 10 min, Table 115
Procedure, shortened: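 MSD electrochemiluminescence read-out: total STAT captured, probed with anti-pY641-STAT6 or anti-pY705-STAT3. Human PBMC, 3 h compound pretreatment, 10 min stimulation (IL-4 1 ng/mL or IL-6 10 ng/mL). Unstimulated signal subtracted, DMSO-normalized, variable-slope IC50.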

C[C@H](NP(=O)(Oc1ccccc1)[C@@H](F)c1ccc2sc(C(=O)N[C@H]3CCCC[C@H]4CC[C@@H](C(=O)N5C[C@@H](c6cccnc6)CC56CC6)N4C3=O)cc2c1)C(=O)OCC(C)(C)C (stereo partly drawn) [Compound 477, neopentyl (((R)-fluoro(2-(((3S,6S,10aS)-5-oxo-3-((R)-6-(pyridin-3-yl)-4-azaspiro[2.4]heptane-4-carbonyl)decahydropyrrolo[1,2-a]azocin-6-yl)carbamoyl)benzo [b]thiophen-5-yl)methyl)(phenoxy)phosphoryl)-L-alaninate]
IC50 (STAT6, PBMC): < 0.1 µM

CCCOC(=O)[C@H](C)NP(=O)(Oc1ccccc1)[C@@H](F)c1ccc2sc(C(=O)N[C@H]3CCC[C@H]4CC[C@@H](C(=O)N5C[C@H](c6ccc(C)cc6)[C@@H](C#N)C56CC6)N4C3=O)cc2c1 (some centres unmarked) [Compound 479]
IC50 (PBMC, read-out: STAT6): < 0.1 µM

COCCOC(=O)[C@H](C)NP(=O)(Oc1ccccc1)[C@@H](F)c1ccc2sc(C(=O)N[C@H]3CCC[C@H]4CC[C@@H](C(=O)N5C[C@@H](c6cccnc6)CC56CC6)N4C3=O)cc2c1 (stereo partly drawn) [Compound 480, 2-methoxyethyl (((R)-fluoro(2-(((3S,6S,9aS)-5-oxo-3-((R)-6-(pyridin-3-yl)-4-azaspiro[2.4]heptane-4-carbonyl)octahydro-1H-pyrrolo[1,2-a]azepin-6-yl)carbamoyl)benzo [b]thiophen-5-yl)methyl)(phenoxy)phosphoryl)-L-alaninate]
IC50 (STAT6, PBMC): < 0.1 µM

CCCOC(=O)[C@H](C)NP(=O)(Oc1c(C)cccc1C)[C@@H](F)c1ccc2sc(C(=O)N[C@H]3CCC[C@H]4CC[C@@H](C(=O)N5C[C@@H](c6cccnc6)CC56CC6)N4C3=O)cc2c1 (stereo partly drawn) [Compound 481, propyl ((2,6-dimethylphenoxy) ((R)-fluoro(2-(((3S,6S,9aS)-5-oxo-3-((R)-6-(pyridin-3-yl)-4-azaspiro[2.4]heptane-4-carbonyl)octahydro-1H-pyrrolo[1,2-a]azepin-6-yl)carbamoyl)benzo [b]thiophen-5-yl)methyl)phosphoryl)-L-alaninate]
IC50 (STAT6, PBMC): < 0.1 µM

CCCOC(=O)[C@H](C)NP(=O)(Cc1ccc2sc(C(=O)N[C@H]3CCC[C@H]4CC[C@@H](C(=O)N5C[C@@H](c6ccccc6)[C@H](C#N)C56CC6)N4C3=O)cc2c1)Oc1ccccc1 (stereo partly drawn) [Compound 486, propyl (((2-(((3S,6S,9aS)-3-((6R,7S)-7-cyano-6-phenyl-4-azaspiro[2.4]heptane-4-carbonyl)-5-oxooctahydro-1H-pyrrolo[1,2-a]azepin-6-yl)carbamoyl)benzo [b]thiophen-5-yl)methyl)(phenoxy)phosphoryl)-L-alaninate]
IC50 (STAT6, PBMC): < 0.1 µM

CCCOC(=O)[C@@H]1CCCN1P(=O)(Oc1ccccc1)[C@H](F)c1ccc2sc(C(=O)N[C@H]3CCC[C@H]4CC[C@@H](C(=O)N5C[C@H](c6ccccc6)[C@@H](C#N)C56CC6)N4C3=O)cc2c1 (stereo partly drawn) [Compound 487, propyl (((S)-(2-(((3S,6S,9aS)-3-((6S,7R)-7-cyano-6-phenyl-4-azaspiro[2.4]heptane-4-carbonyl)-5-oxooctahydro-1H-pyrrolo[1,2-a]azepin-6-yl)carbamoyl)benzo [b]thiophen-5-yl)fluoromethyl) (phenoxy)phosphoryl)-L-prolinate]
IC50 (STAT6, PBMC): 1 to 3 µM

CCCOC(=O)[C@@H]1CCN1P(=O)(Oc1ccccc1)[C@H](F)c1ccc2sc(C(=O)N[C@H]3CCC[C@H]4CC[C@@H](C(=O)N5C[C@H](c6ccccc6)[C@@H](C#N)C56CC6)N4C3=O)cc2c1 (stereo partly drawn) [Compound 488, propyl (2S)-1-(((S)-(2-(((3S,6S,9aS)-3-((6S,7R)-7-cyano-6-phenyl-4-azaspiro[2.4]heptane-4-carbonyl)-5-oxooctahydro-1H-pyrrolo[1,2-a]azepin-6-yl)carbamoyl)benzo [b]thiophen-5-yl)fluoromethyl) (phenoxy)phosphoryl) azetidine-2-carboxylate]
IC50 (STAT6, PBMC): 1 to 3 µM

CCCOC(=O)[C@H](C)NP(=O)(Oc1ccccc1)[C@@H](F)c1ccc2sc(C(=O)N[C@H]3CC[C@H](N4CCC4)C[C@H]4CC[C@@H](C(=O)N5C[C@@H](c6ccccc6)[C@H](C#N)C56CC6)N4C3=O)cc2c1 (stereo partly drawn) [Compound 489, propyl (((R)-(2-(((3S,6S,9S,10aR)-9-(azetidin-1-yl)-3-((6R,7S)-7-cyano-6-phenyl-4-azaspiro[2.4]heptane-4-carbonyl)-5-oxodecahydropyrrolo [1,2-a]azocin-6-yl)carbamoyl)benzo [b]thiophen-5-yl)fluoromethyl) (phenoxy)phosphoryl)-L-alaninate]
IC50 (STAT6, PBMC): 0.1 to 1 µM

CCCOC(=O)[C@H](C)NP(=O)(Oc1ccccc1)[C@@H](F)c1ccc2sc(C(=O)N[C@H]3CC[C@H](N4CCC4)C[C@H]4CC[C@@H](C(=O)N5C[C@H](c6ccccc6)[C@@H](C#N)C56CC6)N4C3=O)cc2c1 (stereo partly drawn) [Compound 490, propyl (((R)-(2-(((3S,6S,9S,10aR)-9-(azetidin-1-yl)-3-((6S,7R)-7-cyano-6-phenyl-4-azaspiro[2.4]heptane-4-carbonyl)-5-oxodecahydropyrrolo [1,2-a]azocin-6-yl)carbamoyl)benzo [b]thiophen-5-yl)fluoromethyl) (phenoxy)phosphoryl)-L-alaninate]
IC50 (STAT6, PBMC): 0.1 to 1 µM

CCCOC(=O)[C@H](C)NP(=O)(Oc1ccccc1)[C@H](F)c1ccc2sc(C(=O)N[C@H]3CC[C@H](N4CCC4)C[C@H]4CC[C@@H](C(=O)N5C[C@H](c6ccccc6)[C@@H](C#N)C56CC6)N4C3=O)cc2c1 (stereo partly drawn) [Compound 491, propyl (((S)-(2-(((3S,6S,9S,10aR)-9-(azetidin-1-yl)-3-((6S,7R)-7-cyano-6-phenyl-4-azaspiro[2.4]heptane-4-carbonyl)-5-oxodecahydropyrrolo [1,2-a]azocin-6-yl)carbamoyl)benzo [b]thiophen-5-yl)fluoromethyl) (phenoxy)phosphoryl)-L-alaninate]
IC50 (STAT6, PBMC): < 0.1 µM

CCCOC(=O)[C@H](C)NP(=O)(Oc1ccccc1)[C@H](F)c1ccc2sc(C(=O)N[C@H]3CC[C@H](N4CCC4)C[C@H]4CC[C@@H](C(=O)N5C[C@@H](c6ccccc6)[C@H](C#N)C56CC6)N4C3=O)cc2c1 (stereo partly drawn) [Compound 492, propyl (((S)-(2-(((3S,6S,9S,10aR)-9-(azetidin-1-yl)-3-((6R,7S)-7-cyano-6-phenyl-4-azaspiro[2.4]heptane-4-carbonyl)-5-oxodecahydropyrrolo [1,2-a]azocin-6-yl)carbamoyl)benzo [b]thiophen-5-yl)fluoromethyl) (phenoxy)phosphoryl)-L-alaninate]
IC50 (STAT6, PBMC): < 0.1 µM

CCCOC(=O)[C@H](C)NP(=O)(Oc1ccccc1)C(F)c1ccc2sc(C(=O)N[C@H]3CCCC[C@H]4CC[C@@H](C(=O)N5C(=O)N(c6cc(=O)n(C)cc6F)C(=O)C56CC6)N4C3=O)cc2c1 (stereo partly drawn) [Compound 976, propyl ((fluoro(2-(((3S,6S,10aS)-3-(6-(5-fluoro-1-methyl-2-oxo-1,2-dihydropyridin-4-yl)-5,7-dioxo-4,6-diazaspiro [2.4]heptane-4-carbonyl)-5-oxodecahydropyrrolo [1,2-a]azocin-6-yl)carbamoyl)benzo [b]thiophen-5-yl)methyl)(phenoxy)phosphoryl)-L-alaninate]
IC50 (STAT6, PBMC): > 3 µM

CCCOC(=O)[C@H](C)NP(=O)(Oc1ccccc1)C(F)c1ccc2sc(C(=O)N[C@H]3CCCC[C@H]4CC[C@@H](C(=O)N5C(=O)N(c6ccn(C)c(=O)c6)C(=O)C56CC6)N4C3=O)cc2c1 (stereo partly drawn) [Compound 977, propyl ((fluoro(2-(((3S,6S,10aS)-3-(6-(1-methyl-2-oxo-1,2-dihydropyridin-4-yl)-5,7-dioxo-4,6-diazaspiro[2.4]heptane-4-carbonyl)-5-oxodecahydropyrrolo [1,2-a]azocin-6-yl)carbamoyl)benzo [b]thiophen-5-yl)methyl)(phenoxy)phosphoryl)-L-alaninate]
IC50 (STAT6, PBMC): 0.1 to 1 µM

CCCOC(=O)[C@H](C)NP(=O)(Oc1ccccc1)C(F)c1ccc2sc(C(=O)N[C@H]3CCCC[C@H]4CC[C@@H](C(=O)N5C(=O)N(c6ccn(C(C)C)c(=O)c6)C(=O)C56CC6)N4C3=O)cc2c1 (stereo partly drawn) [Compound 981, propyl ((fluoro(2-(((3S,6S,10aS)-3-(6-(1-isopropyl-2-oxo-1,2-dihydropyridin-4-yl)-5,7-dioxo-4,6-diazaspiro [2.4]heptane-4-carbonyl)-5-oxodecahydropyrrolo [1,2-a]azocin-6-yl)carbamoyl)benzo [b]thiophen-5-yl)methyl)(phenoxy)phosphoryl)-L-alaninate]
IC50 (STAT6, PBMC): > 3 µM
